{
  "source": "patent US20140314819A1",
  "about": "“COMPOSITIONS AND METHODS FOR TREATING DENTAL CONDITIONS” (HILL'S PET NUTRITION, INC., priority 2011, published 2014)",
  "key": {"[1]": {"tested_on": "oral substrate accumulation (dental plaque, calculus, and tooth stain)", "assay": "28 day feeding study in dogs: oral substrate accumulation by Logan-Boyce quantification", "format": "in vivo, beagle dogs", "settings": "dog food comprising 1.5% lactic acid fed to dogs for one month", "description": "Plaque is measured by applying a disclosing solution (2% aqueous eosin) to the animal's teeth. The teeth to be scored are divided into gingival and occlusal halves, and each half is assigned a separate numerical score for plaque coverage (percentage of the tooth area stained) and thickness (intensity of staining) The score for each tooth half is calculated by multiplying the coverage and thickness scores. The gingival and occlusal scores are then added together for a tooth score. The sum of the teeth scores is identified as the total tooth score, and the whole mouth mean score is calculated by averaging the total teeth scores for each animal. The plaque scoring method gives a number of 0-4 by the percentage of plaque coverage with 0=no plaque detected, 1=1-24% coverage, 2=25-49% coverage, 3=50-74% coverage and 4=75-100% coverage. […] The whole mouth score is calculated by adding the teeth scores and dividing by the number of teeth scored. Calculus is measured by air-drying the teeth to be scored, dividing those teeth vertically into mesial, buccal, and distal thirds, and assigning each third a numerical score based on the percentage of calculus coverage with 0=no calculus detected, 1=1-24% coverage, 2=25-49% coverage, 3=50-74% coverage, and 4=75-100% coverage. […] The whole mouth score is calculated by adding the teeth scores and dividing by the number of teeth scored. […]"}, "[2]": {"tested_on": "oral substrate accumulation (dental plaque, calculus, and tooth stain)", "assay": "Twelve month feeding study in cats: oral substrate accumulation by Logan-Boyce quantification", "format": "in vivo, domestic cats", "settings": "composition comprising 1.2% lactic acid fed to cats for six months", "excerpt": "This study was designed to assess the effect of lactic acid on oral substrate accumulation (dental plaque, calculus, and tooth stain) in cats. Initially, all cats received a professional dental prophylaxis at this baseline using standard, well-established procedures. Six and twelve months later, dental substrate accumulation (dental plaque, calculus, and tooth stain) was quantified using the Logan-Boyce quantification method (See Logan E I, Boyce. Oral health assessment in dogs: parameters and methods. J. Vet Dent; 11(2):58-63.) Plaque is measured by applying a disclosing solution (2% aqueous eosin) to the animal's teeth. The teeth to be scored are divided into gingival and occlusal halves, and each half is assigned a separate numerical score for plaque coverage (percentage of the tooth area stained) and thickness (intensity of staining) The score for each tooth half is calculated by multiplying the coverage and thickness scores. The gingival and occlusal scores are then added together for a tooth score. The sum of the teeth scores is identified as the total tooth score, and the whole mouth mean score is calculated by averaging the total teeth scores for each animal. The plaque scoring method gives a number of 0-4 by the percentage of plaque coverage with 0=no plaque detected, 1=1-24% coverage, 2=25-49% coverage, 3=50-74% coverage and 4=75-100% coverage. […]"}},
  "data": [
    {"molecule": "CC(O)C(=O)O", "note": "(centres unmarked) [lactic acid]", "values": [
      {"measurement": "Effect on tooth calculus and stain (in words)", "setting": "[1]", "value": "inhibits tooth calculus and stain"},
      {"measurement": "Effect on formation of dental plaque, calculus and stain (in words)", "setting": "[2]", "value": "inhibits formation of dental plaque, calculus and stain"}
    ]}
  ]
}
